32 compounds from patent US11458138B2 (Novartis AG, priority 2017, dated 2022) can be followed below.

Test [1] has as its system YAP nuclear translocation in HaCaT cells. In words: YAP Translocation Assay (HaCaT Cells). The class given is cell-based, human. As to conditions: 24 hours. The procedure, abridged: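 HaCaT cells (20,000/well) in DMEM + 10% FBS were plated overnight at 37° C, then exposed to compound for 24 h at 37° C. Cells were fixed with PFA, permeabilized with 0.1% Triton/1.5% BSA and imaged by high-content imaging.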

For test [2], the system named is Phospho-YAP (SER127) in HaCaT cells. In words: pYAP HTRF Assay (HaCaT Cells). The class given is cell-based, human. The conditions noted are these: 2 hours. Here is the method:
The pYAP HTRF assay was performed using the Phospho-YAP (SER127) 10000 test kit (CisBio, catalogue number 64YAPPEH) according to manufacturer's instructions. Briefly, HaCaT cells were suspended at 1.1×10^6 cells/mL in DMEM (no phenol red)+10% FBS with penicillin-streptomycin-glutamine. 5 μL of cells were dispensed into 1536 well white solid bottom, tissue culture treated plates (5500 cells/well), and incubated for 48 hours at 37° C. 50 nL test compound was transferred into the assay plates containing HaCaT cells using Pintool (GNF) and incubated for 2 hours. […] The plates were incubated overnight (20 hrs) at room temperature covered with metal lids. Plates were read on Pherastar (BMG Labtech) for HTRF (665 nm/620 nm).
(TR-FRET usually uses a lanthanide donor and a delayed reading to cut background.)

Test [3] has as its target LATS1 (Homo sapiens (Human), UniProt O95835). The test can be described thus: LATS1 biochemical assay (Table 1A, Compound Examples 1-290; method in the earlier part).

Chain of LATS1 (O95835 whole entry, looked up): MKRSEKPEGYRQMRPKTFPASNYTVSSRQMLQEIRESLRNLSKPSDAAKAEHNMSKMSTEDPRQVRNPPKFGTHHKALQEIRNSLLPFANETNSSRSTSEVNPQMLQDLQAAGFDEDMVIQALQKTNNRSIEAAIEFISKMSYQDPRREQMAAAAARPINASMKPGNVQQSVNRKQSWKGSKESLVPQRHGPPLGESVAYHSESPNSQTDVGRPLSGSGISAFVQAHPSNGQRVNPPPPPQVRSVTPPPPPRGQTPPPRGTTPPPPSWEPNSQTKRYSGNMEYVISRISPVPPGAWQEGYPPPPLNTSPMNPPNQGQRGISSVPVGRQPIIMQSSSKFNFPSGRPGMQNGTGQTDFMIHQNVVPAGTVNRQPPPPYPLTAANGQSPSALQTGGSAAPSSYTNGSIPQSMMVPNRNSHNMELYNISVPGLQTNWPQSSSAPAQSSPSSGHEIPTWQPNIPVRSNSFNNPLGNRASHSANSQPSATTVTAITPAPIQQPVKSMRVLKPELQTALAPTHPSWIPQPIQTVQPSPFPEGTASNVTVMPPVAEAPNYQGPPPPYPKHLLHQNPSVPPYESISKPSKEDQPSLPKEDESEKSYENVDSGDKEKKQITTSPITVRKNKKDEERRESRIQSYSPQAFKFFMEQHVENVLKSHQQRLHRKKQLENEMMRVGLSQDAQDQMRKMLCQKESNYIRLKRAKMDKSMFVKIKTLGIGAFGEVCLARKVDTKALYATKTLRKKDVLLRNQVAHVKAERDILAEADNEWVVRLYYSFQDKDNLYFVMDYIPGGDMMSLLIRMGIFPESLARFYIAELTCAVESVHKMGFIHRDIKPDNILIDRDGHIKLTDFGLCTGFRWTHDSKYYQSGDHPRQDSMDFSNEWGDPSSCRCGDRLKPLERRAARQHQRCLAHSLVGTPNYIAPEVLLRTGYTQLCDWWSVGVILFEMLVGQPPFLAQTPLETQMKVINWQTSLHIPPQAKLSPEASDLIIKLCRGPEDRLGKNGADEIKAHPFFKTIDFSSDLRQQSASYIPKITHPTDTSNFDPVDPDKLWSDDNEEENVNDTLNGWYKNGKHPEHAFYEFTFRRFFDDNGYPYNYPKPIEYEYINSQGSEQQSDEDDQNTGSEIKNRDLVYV
Chain of LATS1 (Q7L9L4 whole entry partner, looked up): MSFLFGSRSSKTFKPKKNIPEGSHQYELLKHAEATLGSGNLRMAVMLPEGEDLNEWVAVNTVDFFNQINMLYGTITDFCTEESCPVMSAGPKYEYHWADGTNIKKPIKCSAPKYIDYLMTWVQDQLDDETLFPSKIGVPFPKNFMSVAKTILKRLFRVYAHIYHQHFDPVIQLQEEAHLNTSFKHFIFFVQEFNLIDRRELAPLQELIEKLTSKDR

What is called EC50 is the concentration needed to bring the measured effect to its halfway point. The low end stands for higher potency in that assay, the high end for lower potency in that assay. What is called IC50 is the concentration at which inhibition is half-maximal. A lower IC50 goes with greater potency. `CCC(C)(C)Nc1nc(-c2ccncc2)nc2cnccc12` [Example 63, N-(2-methylbutan-2-yl)-2-(pyridin-4-yl)pyrido[3,4-d]pyrimidin-4-amine] gave a 50% effective concentration (EC50) in test [1] (Homo sapiens) of 338 nM. Also, the 50% inhibitory concentration (IC50) in test [2] (Homo sapiens) was 131 nM; in test [3] it was 1 nM.

The compound `CC(C)(C#N)Nc1nc(-c2ccncc2)nc2cnccc12` [Example 107, 2-methyl-2-{[2-(pyridin-4-yl)pyrido[3,4-d]pyrimidin-4-yl]amino}propanenitrile] displayed a concentration for a half-maximal effect (EC50) in test [1] (Homo sapiens) of 20000 nM. Moreover, the concentration for half-maximal inhibition (IC50) in test [2] (Homo sapiens) came to 31200 nM; in test [3], 8 nM.

With `OCC1(Nc2nc(-c3cn[nH]c3)nc3cnccc23)CC1` [Example 192, (1-{[2-(1H-pyrazol-4-yl)pyrido[3,4-d]pyrimidin-4-yl]amino}cyclopropyl)methanol], the EC50 in test [1] (Homo sapiens) was more than 20000 nM. In addition, the figures for the IC50 in test [2] (Homo sapiens) and in test [3] were more than 10000 nM and 201 nM, respectively.

As for `C[C@@H]1CCC[C@@H]1Nc1nc(-c2ccncc2)nc2cnccc12` (single isomer, unassigned) [Example 17b], the response in test [1] (Homo sapiens) was half-maximal at 1220 nM (EC50). For the same compound, the IC50 in test [2] (Homo sapiens) is 765 nM; in test [3] it was 0.9 nM.

On to `CCCCCNc1nc(-c2ccncc2)nc2cnccc12` [Example 77, N-pentyl-2-(pyridin-4-yl)pyrido[3,4-d]pyrimidin-4-amine], for which, in test [1] (Homo sapiens), the 50% effective concentration (EC50) is 13400 nM. The half-inhibitory concentration (IC50) in test [2] (Homo sapiens) is more than 100000 nM; in test [3] it was 9 nM.

Turning to `O[C@@H]1CCC[C@@H]1Nc1nc(-c2ccncc2)nc2cnccc12` [Example 26, (1R,2S)-2-{[2-(pyridin-4-yl)pyrido[3,4-d]pyrimidin-4-yl]amino}cyclopentan-1-ol], the half-maximal effective concentration (EC50) in test [1] (Homo sapiens) is more than 100000 nM. For the same compound, the values for the half-inhibitory concentration (IC50) in test [2] (Homo sapiens) and in test [3] were 54600 nM and 31 nM, respectively.

`CC1CCCCN1CC(C)(C)Nc1nc(-c2ccncc2)nc2cnccc12` (stereo not drawn) [Example 108, N-[2-methyl-1-(2-methylpiperidin-1-yl)propan-2-yl]-2-(pyridin-4-yl)pyrido[3,4-d]pyrimidin-4-amine]: the EC50 in test [1] (Homo sapiens) is more than 19300 nM. The IC50 in test [2] (Homo sapiens) was 11800 nM; in test [3] it was 27 nM.

As for `C[C@H]1CCC[C@H]1Nc1nc(-c2ccncc2)nc2cnccc12` (single isomer, unassigned) [Example 17a], the concentration for a half-maximal effect (EC50) in test [1] (Homo sapiens) is 4100 nM. Further, the IC50 was 4950 nM in test [2] (Homo sapiens) and 3 nM in test [3].

On to `CC(C)(Nc1nc(-c2c[nH]nc2C(F)(F)F)nc2cnccc12)C(F)(F)F` [Example 145, N-(1,1,1-trifluoro-2-methylpropan-2-yl)-2-[3-(trifluoromethyl)-1H-pyrazol-4-yl]pyrido[3,4-d]pyrimidin-4-amine], for which the 50% effective concentration (EC50) in test [1] (Homo sapiens) was 9310 nM. In addition, the figures for the IC50 in test [2] (Homo sapiens) and in test [3] were more than 100000 nM and 12 nM, respectively.

On to `COc1ccc(Nc2nc(-c3ccncc3)nc3cnccc23)cc1` [Example 91, N-(4-methoxyphenyl)-2-(pyridin-4-yl)pyrido[3,4-d]pyrimidin-4-amine], for which the EC50 in test [1] (Homo sapiens) is more than 20000 nM. The IC50 is more than 10000 nM in test [2] (Homo sapiens) and 148 nM in test [3].

As to `CC1(Nc2nc(-c3ccncc3)nc3cnccc23)COC1` [Example 16, N-(3-methyloxetan-3-yl)-2-(pyridin-4-yl)pyrido[3,4-d]pyrimidin-4-amine], the response in test [1] (Homo sapiens) was half-maximal at 15800 nM (EC50). The 50% inhibitory concentration (IC50) in test [2] (Homo sapiens) was 9790 nM; in test [3] it was 5 nM.

With `CC1(Nc2nc(-n3ccc4ncccc43)nc3cnccc23)CC1` [Example 179, N-(1-methylcyclopropyl)-2-{1H-pyrrolo[3,2-b]pyridin-1-yl}pyrido[3,4-d]pyrimidin-4-amine], in test [1] (Homo sapiens), the EC50 is more than 20000 nM. Also, the IC50 in test [2] (Homo sapiens) was more than 10000 nM; in test [3] it was 2 nM.

For `CCCCN(C)c1nc(-c2ccncc2)nc2cnccc12` [Example 9, N-butyl-N-methyl-2-(pyridin-4-yl)pyrido[3,4-d]pyrimidin-4-amine], in test [1] (Homo sapiens), the response was half-maximal at 2420 nM (EC50). Besides, the IC50 worked out at 2100 nM in test [2] (Homo sapiens) and 3 nM in test [3].

In turn, `CC[C@@H](C)Nc1nc(-c2ccncc2)nc2cnccc12` (single isomer, unassigned) [Example 68b] gave an EC50 in test [1] (Homo sapiens) of 2920 nM. Besides, the values for the IC50 in test [2] (Homo sapiens) and in test [3] were 4270 nM and 2 nM, respectively.

In test [1] (Homo sapiens), `CC(C)(CN1CCOCC1)Nc1nc(-c2ccncc2)nc2cnccc12` [Example 74] came in with a half-maximal effective concentration (EC50) of 12700 nM. Besides, the values for the half-inhibitory concentration (IC50) in test [2] (Homo sapiens) and in test [3] were 3400 nM and 6 nM, respectively.

On to `NCCCCCCNc1nc(-c2ccncc2)nc2cnccc12` [Example 105, N-(6-aminohexyl)-2-(pyridin-4-yl)pyrido[3,4-d]pyrimidin-4-amine], for which the EC50 in test [1] (Homo sapiens) was more than 20000 nM. For the same compound, the 50% inhibitory concentration (IC50) was 19900 nM in test [2] (Homo sapiens) and 1 nM in test [3].

On to `c1cc(-c2nc(NC3CC3)c3ccncc3n2)ccn1` [Example 21, N-cyclopropyl-2-(pyridin-4-yl)pyrido[3,4-d]pyrimidin-4-amine], for which the response in test [1] (Homo sapiens) was half-maximal at 8810 nM (EC50). For the same compound, the values for the concentration for half-maximal inhibition (IC50) in test [2] (Homo sapiens) and in test [3] were 19200 nM and 7 nM, respectively.

Turning to `COC1CC(Nc2nc(-c3ccncc3)nc3cnccc23)C1` (stereo not drawn) [Example 52, N-(3-methoxycyclobutyl)-2-(pyridin-4-yl)pyrido[3,4-d]pyrimidin-4-amine], in test [1] (Homo sapiens), the EC50 is more than 20000 nM. In addition, the IC50 in test [2] (Homo sapiens) came out at 11300 nM; in test [3] it was 12 nM.

Take `Fc1ccccc1Nc1nc(-c2ccncc2)nc2cnccc12` [Example 82, N-(2-fluorophenyl)-2-(pyridin-4-yl)pyrido[3,4-d]pyrimidin-4-amine]: the EC50 in test [1] (Homo sapiens) was more than 20000 nM. For the same compound, the concentration for half-maximal inhibition (IC50) in test [2] (Homo sapiens) was more than 100000 nM; in test [3], 13 nM.

Compound `CC(C)(CO)Nc1cc(-c2ccncc2F)nc2cnccc12` [Example 282, 2-{[2-(3-fluoropyridin-4-yl)-1,7-naphthyridin-4-yl]amino}-2-methylpropan-1-ol] returned an EC50 in test [1] (Homo sapiens) of 11300 nM. Further, the results for the 50% inhibitory concentration (IC50) in test [2] (Homo sapiens) and in test [3] were 8270 nM and 10 nM, respectively.

Take `CCCNc1nc(-c2c(C)[nH]c3ncccc23)nc2cnccc12` [Example 142, 2-{2-methyl-1H-pyrrolo[2,3-b]pyridin-3-yl}-N-propylpyrido[3,4-d]pyrimidin-4-amine]: the EC50 in test [1] (Homo sapiens) is more than 28000 nM. Also, the IC50 was more than 100000 nM in test [2] (Homo sapiens) and 6 nM in test [3].

Consider `C#CC(C)(C)Nc1nc(-c2ccncc2)nc2cnccc12` [Example 69, N-(2-methylbut-3-yn-2-yl)-2-(pyridin-4-yl)pyrido[3,4-d]pyrimidin-4-amine], for which, in test [1] (Homo sapiens), it took 11500 nM to reach a half-maximal effect (EC50). Moreover, the concentration for half-maximal inhibition (IC50) in test [2] (Homo sapiens) worked out at 4720 nM; in test [3], 3 nM.

In turn, `COCC(C)(C)Nc1nc(-c2ccncc2Cl)nc2cnccc12` [Example 124, 2-(3-chloropyridin-4-yl)-N-(1-methoxy-2-methylpropan-2-yl)pyrido[3,4-d]pyrimidin-4-amine] came in with an EC50 in test [1] (Homo sapiens) of 12000 nM. The 50% inhibitory concentration (IC50) in test [2] (Homo sapiens) turned out to be 8010 nM; in test [3] it was 22 nM.

In test [1], `CC1CCCC1Nc1nc(-c2ccncc2)nc2cnccc12` (single isomer, unassigned) [Example 17d] returned an EC50 of 1720 nM. For the same compound, the IC50 in test [2] worked out at 402 nM; in test [3], 1 nM.

Turning to `CNc1nc(-c2ccncc2)nc2cnccc12` [Example 86, N-methyl-2-(pyridin-4-yl)pyrido[3,4-d]pyrimidin-4-amine], the EC50 in test [1] (Homo sapiens) was more than 20000 nM. The concentration for half-maximal inhibition (IC50) in test [2] (Homo sapiens) was 56000 nM; in test [3] it was 26 nM.

As to `CC(C)(COC(C)(C)C)Nc1nc(-c2ccncc2)nc2cnccc12` [Example 75, N-[1-(tert-butoxy)-2-methylpropan-2-yl]-2-(pyridin-4-yl)pyrido[3,4-d]pyrimidin-4-amine], it took 6910 nM to reach a half-maximal effect in test [1] (Homo sapiens) (EC50). Further, the half-inhibitory concentration (IC50) was 3800 nM in test [2] (Homo sapiens) and 8 nM in test [3].

Turning to `Cc1n[nH]cc1-c1nc(NC(C)(C)C(F)(F)F)c2ccncc2n1` [Example 135, 2-(3-methyl-1H-pyrazol-4-yl)-N-(1,1,1-trifluoro-2-methylpropan-2-yl)pyrido[3,4-d]pyrimidin-4-amine], the EC50 in test [1] (Homo sapiens) was determined as 850 nM. Moreover, the results for the concentration for half-maximal inhibition (IC50) in test [2] (Homo sapiens) and in test [3] were 488 nM and 2 nM, respectively.

In the case of `CC(C)(C)Nc1nc(-c2ccncc2)nc2cncc(NCCOCCO)c12` [Example 253], the concentration giving a half-maximal response (EC50) in test [1] (Homo sapiens) was more than 20000 nM. The IC50 in test [2] (Homo sapiens) turned out to be 16700 nM; in test [3] it was 85 nM.

For the compound `Cc1noc(C)c1-c1nc(NC2(C)CC2)c2ccncc2n1` [Example 153, 2-(dimethyl-1,2-oxazol-4-yl)-N-(1-methylcyclopropyl)pyrido[3,4-d]pyrimidin-4-amine], the EC50 in test [1] (Homo sapiens) is more than 20000 nM. The half-maximal inhibitory concentration (IC50) in test [2] (Homo sapiens) was more than 10000 nM; in test [3], more than 5000 nM.

`C[C@@H](Nc1nc(-c2ccnn2C)nc2cnccc12)c1ccccc1` [Example 170, 2-(1-methyl-1H-pyrazol-5-yl)-N-[(1R)-1-phenylethyl]pyrido[3,4-d]pyrimidin-4-amine]: the EC50 in test [1] (Homo sapiens) is more than 20000 nM. The values for the IC50 in test [2] (Homo sapiens) and in test [3] were more than 10000 nM and 1280 nM, respectively.

The compound `CC(O)C(C)(C)Nc1nc(-c2ccncc2)nc2cnccc12` (stereo not drawn) [Example 18, 3-methyl-3-{[2-(pyridin-4-yl)pyrido[3,4-d]pyrimidin-4-yl]amino}butan-2-ol] came in with a half-maximal effective concentration (EC50) in test [1] (Homo sapiens) of 3460 nM. Moreover, the IC50 came to 1520 nM in test [2] (Homo sapiens) and 6 nM in test [3].

With `CC1(Nc2nc(-c3cn[nH]c3)nc3cnccc23)CC1` [Example 194, N-(1-methylcyclopropyl)-2-(1H-pyrazol-4-yl)pyrido[3,4-d]pyrimidin-4-amine], the EC50 in test [1] (Homo sapiens) is 4240 nM. For the same compound, the concentration for half-maximal inhibition (IC50) came to 11300 nM in test [2] (Homo sapiens) and 5 nM in test [3].
